From patent US20240148701A1, “WOULD HEALING METHODS” (The University of Sydney, priority 2021, published 2024)

Key:
[1] = tested on: endothelial colony forming cells (ECFC); test: Tubule formation in patient-derived endothelial colony forming cells; assay type: cell-based, human
Experimental: Human umbilical vein endothelial cells (HUVECs; Lonza C2519AS, pooled source, Australia) were grown using standard cell culture conditions in endothelial cell growth medium (EGM Plus®, containing 2% fetal bovine serum, Lonza, Australia). All cells were regularly confirmed to be mycoplasma negative. Two different pooled source cell lines were used in experiments and all were used within passages 2-4. Human adult dermal microvascular endothelial cells were also obtained from Lonza (CC-2543, Lonza Australia) and cultured as above but using endothelial growth medium 2-MV bulletkit. Endothelial colony forming cells (ECFCs) were derived from the peripheral blood of participants in the BioHEART study. This registered study (ACTRN12618001322224) complies with the Declaration of Helsinki and the study protocol and design has been approved by the Northern Sydney Local Health District Human Research Ethics Committee (HREC/17/HAWKE/343). […]
Once they were ˜70% confluent, cells were re-suspended in diluted EGM Plus® (1:3) and plated on reduced-growth factor extracellular matrix (15 mg/ml, Cultrex, Trevigen, USA) at a density of 1.5×10^4 cells/cm^2. […] Cells were incubated in an EVOS FL Auto Imaging system for 16 hours and tubule formation recorded every hour. Optimal tube formation occurred at the 8-hour timepoint; tubule number at this point was quantified manually using NIH Image J software. […]

nitrotyrosine = test: Immunoblot of nitrotyrosine in hind limb tissue; assay type: in vivo, mouse; details: ischemic hind limbs of type 1 diabetic mice
Experimental: Gastrocnemius samples were stored at −80° C. and then mechanically homogenized in ice-cold lysis buffer containing 150 mmol/L NaCl, 200 mmol/L Tris-HCl (pH 8.0), 1% Triton X-100, 0.5% deoxycholic acid, 0.1% SDS, N-ethylmaleimide (25 mM) and protease inhibitors (cOmplete™ EDTA-free, Roche Diagnostics). 30 μg of protein lysate was denatured and run under reducing conditions on SDS-PAGE (Bolt™ pre-cast gels and reagents, Thermofisher Scientific, Australia) and transferred onto Immobilon polyvinylidene fluoride membrane (Merck Millipore, Australia). Membranes were incubated in primary antibodies directed at determining protein expression of the following: Nox isoforms (anti-Nox 2, 1:5000; Abcam, Australia; anti-Nox-4, 1:5000; Abcam, Australia); reactive nitrogen species (anti-nitrotyrosine, 1:1000; Abcam, Australia); and both expression and phosphorylation of eNOS (anti Phospho eNOS serine 1177, 1:1000, Cell Signaling Technology, USA; anti-eNOS 1:1000, BD Biosciences, USA) and Akt (anti Phospho Akt 1:1000, Akt 1:1000, Cell Signaling Technology, USA). Specific secondary antibodies recognizing rabbit or mouse primary antibodies were used (IRDye®, Licor; 1:20,000, USA). Membranes were detected using an Odyssey imaging platform (Licor, USA).

SMILES: C[C@H](Cc1ccc2c(c1)OC(C(=O)[O-])(C(=O)[O-])O2)NC[C@H](O)c1cccc(Cl)c1.[Na+].[Na+] [CL 316,243]
- angiogenesis (tubule formation) in ECFCs ([1]; ECFCs from patients with significant coronary artery disease, 100 ng/ml): effectively stimulate angiogenesis
- angiogenesis in ECFCs ([1]; cells from relatively healthy participants): did not occur
- decrease of nitrotyrosine protein levels (nitrotyrosine): > 70%
